Assays:
[1] = test system: PCSK9 protein; assay: Western blot of intracellular pro-PCSK9 and processed PCSK9 in transfected HepG2 cells; format: cell-based, human; settings: CasX 676 mRNA #2 + gRNA, western blot densitometry, two days post-transfection
Method: (§1) To determine whether use of certain PCSK9-targeting spacers would result in potential intracellular PCSK9 retention, ˜50,000 HepG2 cells were seeded per well in a 96-well plate. CasX 676 mRNA #2 was transfected into HepG2 cells with a PCSK9-targeting gRNA using Lipofectamine™. After a media change, the following were harvested two days post-transfection: 1) media supernatant to measure secreted PCSK9 protein levels by ELISA; and 2) transfected cells for western blotting analysis to evaluate intracellular PCSK9 levels. Harvested cells were subjected to whole cell lysate extraction for western blotting analysis. Briefly, extracted protein samples were resolved by SDS-PAGE followed by immunoblotting to analyze levels of pro-PCSK9 and processed PCSK9, which were quantified by densitometry. Secreted PCSK9 levels in the media supernatant were analyzed using the BioLegend® ELISA MAX™ kit following the manufacturer's instructions. Naïve, untreated cells and cells transfected with CasX 676 mRNA #2 only served as two experimental controls.

[2] = test system: human PCSK9 locus; assay: Secreted PCSK9 by ELISA (normalized to total cell count) in Huh7 cells transfected with mRNA and gRNA; format: cell-based; settings: for Secreted PCSK9 / Percent reduction in PCSK9 secretion / Average percent reduction in PCSK9 secretion: Huh7 cells, 6 days post-transfection; for Secreted PCSK9: normalized to total cell count; for Percent reduction in PCSK9 secretion: relative to non-targeting gRNA control; for Average percent reduction in PCSK9 secretion: averaged from the two doses
How it was run: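 Huh7 cells were transfected with CasX or epigenetic-editor mRNA plus PCSK9- or B2M-targeting gRNA (scaffold 316). In one screen, LTRP5-ADD-ZIM3 mRNA:gRNA was given at 50:25 or 25:12.5 ng by Lipofectamine 3000. Secreted PCSK9 was measured by ELISA in supernatant 4-87 days post-transfection and normalized to total cell count.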

[3] = test system: human PCSK9 locus; assay: Secreted PCSK9 by ELISA in HepG2 cells transfected with CasX 676 mRNA #2 and PCSK9-targeting gRNA; format: cell-based; settings: CasX 676 mRNA #2 + gRNA scaffold 316 (v1), two days post-transfection
Method: In vitro transcription of CasX 676 mRNA #2 (sequence listed in Table 28, below) was performed as described in Example 7, below. Guide RNAs using scaffold 316 and a PCSK9-targeting spacer were synthesized with a v1 modification profile (as discussed in Example 7). Spacers 6.1, 6.8, 6.86, 6.114, 6.197, and 6.203 (sequences listed in Table 24) were assessed for intracellular PCSK9 retention.
as §1, with “Naïve, untreated cells and cells transfected with CasX 676 mRNA #2 only served as two experimental controls.” left out

[4] = test system: HBEGF locus; format: cell-based, human; settings: HEK293T; dCasX491 fusion, scaffold 174 spacer 34.28; 2 ng/ml diphtheria toxin for 48 hours
[5] = test system: mouse PCSK9 locus; assay: Intracellular PCSK9 staining by flow cytometry in Hepa1-6 cells lipofected with mRNA and gRNA; format: cell-based; settings: for permanence of PCSK9 silencing by spacer: paired with LTRP1-ZIM3 mRNA, through day 25
Method: Seeded Hepa1-6 cells treated with the NATE™ inhibitor were lipofected with 300 ng of mRNA encoding dXR1 or LTRP1-ZIM3 (Table 12) and 150 ng of a PCSK9-targeting gRNA (Table 14). Seven different gRNAs spanning the promoter region of the mouse PCSK9 locus were tested, in addition to a non-targeting sequence complementary to the human PCSK9 gene (Table 14). Cells were harvested at 6, 13, and 25 days after transfection to measure intracellular levels of the PCSK9 protein using an intracellular flow cytometry staining protocol. Briefly, cells were fixed using 4% paraformaldehyde in PBS, permeabilized, and stained using a mouse anti-PCSK9 primary antibody (R&D Systems®), followed by a fluorescent goat anti-mouse IgG secondary antibody (Thermo Fisher®). […] Cell populations were gated using the non-targeting gRNA as a negative control.
Seeded Hepa1-6 cells treated with the NATE™ inhibitor were lipofected with 300 ng of mRNA encoding LTRP1-ZIM3, LTRP5-ZIM3, catalytically-active CasX 491, or dCas9-ZNF10-DNMT3A/3L, and 150 ng of PCSK9-targeting gRNA (Table 14). Intracellular levels of PCSK9 protein were measured at 7, 14, 21, 36, and 71 days post-transfection using an intracellular staining protocol as described earlier for experiment #1.
Transfection of mRNA and gRNA into Hepa1-6 cells and intracellular PCSK9 staining were performed as described in Example 2. Briefly, each well of seeded Hepa1-6 cells was transfected with 300 ng of mRNA encoding LTRP5-ZIM3 or LTRP5-ADD-ZIM3 and 150 ng of PCSK9-targeting gRNA with spacer 27.88 or 27.94. Intracellular levels of PCSK9 protein were measured at various timepoints, up to day 53 post-transfection using an intracellular staining protocol as described earlier in Example 2. A non-targeting gRNA was used as an experimental control.

[6] = test system: human PCSK9 locus; assay: RNA-seq: normalized PCSK9 read counts (log2FC) in transfected Huh7 cells; format: cell-based; settings: mRNA + gRNA scaffold 316 (v1), 6 and 26 days post-transfection, vs untreated naive
Text: (§2) Seeded Huh7 cells were transfected with mRNA encoding a catalytically-active CasX 676, dXR1, or LTRP5-ADD-ZIM3 and a gRNA with scaffold 316 and a spacer targeting the PCSK9 locus. Cells were harvested at 6 and 26 days post-transfection and subsequently lysed and stored in DNA/RNA Shield (Zymo Research). As an additional control, untreated, naïve cells were also harvested. The collected samples were subjected to gDNA/RNA extraction using the Quick-DNA/RNA Miniprep Plus kit (Zymo Research). RNA samples were used for total RNA sequencing (RNA-seq), which was performed by a third-party. Raw FASTQ files were received and processed with FASTQC, and adapters were trimmed using Trim Galore. Transcript expression was then quantified against the hg38 genome using Salmon to generate normalized counts for each gene (transcripts per million, or TPM). Differential expression analysis was performed using DESeq2. Genes with fewer than 10 counts in all samples were omitted from analysis, and all pairwise comparisons (e.g., differential gene expression analyses between untreated and treated conditions at the two individual timepoints) were done with significance thresholds of |log 2FC|>2 and adjusted p-value<0.001.

[7] = test system: Huh7 cells; assay: RNA-seq: differentially regulated off-target genes in transfected Huh7 cells; format: cell-based, human; settings: 6 and 26 days, |log2FC|>2 and adjusted p-value<0.001, vs untreated naive
Text: as §2

[8] = 25 ng mRNA:12.5 ng gRNA, paired with LTRP5-ADD-ZIM3 mRNA
[9] = 50 ng mRNA:25 ng gRNA, paired with LTRP5-ADD-ZIM3 mRNA
[10] = paired with LTRP5-ADD-ZIM3 mRNA

Substance | Secreted PCSK9 [2, 8] | Percent reduction in PCSK9 secretion [2, 8] | Secreted PCSK9 [2, 9] | Percent reduction in PCSK9 secretion [2, 9] | Average percent reduction in PCSK9 secretion [2, 10] | other results
GAGGAGGACGGCCUGGCCGA (listed as RNA, chemistry not given here) [spacer 6.1, Exon 1] | 32.86 ng/mL | 53.88% | 18.21 ng/mL | 77.86% | 65.87% | intracellular pro-PCSK9 / intracellular protein levels [1]: did not result in substantially increased pro-PCSK9 levels; reduction in secreted PCSK9 levels compared to cells transfected with CasX 676 mRNA only [3]: ~50%
standard ZNF10: human ZNF10 KRAB repressor domain, SEQ ID NO: 129 [reference compound] | – | – | – | – | – | log 2 (fold change) of abundance before and after selection [4]: 1.3637
CGCUACCUGCCUAAACUUUG (spacer within chemically modified full gRNA with 2'-OMe and phosphorothioate ends, further chemistry not given here) [spacer 27.88, mouse PCSK9] | – | – | – | – | – | permanence of PCSK9 silencing by spacer [5]: strongest permanence in silencing PCSK9
AGGGUGUGGGUGCUUGACGC (listed as RNA, chemistry not given here) [spacer 6.154, Promoter] | 24.48 ng/mL | 65.64% | 6.87 ng/mL | 91.65% | 78.64% | PCSK9 expression (RNA-seq) [6]: durably repress PCSK9 expression through day 26; number of differentially regulated off-target genes [7]: higher number of differentially regulated off-target genes
CACUGAAUAGCGCAGCCGCA (listed as RNA, chemistry not given here) [spacer 6.167, Intron 1] | 66.61 ng/mL | 6.51% | 39.55 ng/mL | 51.93% | 29.22% | PCSK9 expression (RNA-seq) [6]: durably repress PCSK9 expression through day 26; number of differentially regulated off-target genes [7]: higher number of differentially regulated off-target genes
AUGGUAGGCACAAGCUCAGC (listed as RNA, chemistry not given here) [spacer 6.133, Promoter] | 42.13 ng/mL | 40.86% | 29.45 ng/mL | 64.21% | 52.53% | PCSK9 expression (RNA-seq) [6]: durably repress PCSK9 expression through day 26; number of differentially regulated off-target genes [7]: lowest number of differentially regulated off-target genes
ZIM3: human ZIM3 KRAB repressor domain, SEQ ID NO: 128 [reference compound] | – | – | – | – | – | log 2 (fold change) of abundance before and after selection [4]: 1.7787
CCCCUCUUAAUCCCCACUCC (spacer within chemically modified full gRNA with 2'-OMe and phosphorothioate ends, further chemistry not given here) [spacer 27.94, mouse PCSK9] | – | – | – | – | – | knockdown of intracellular PCSK9 ([5]; 300 ng LTRP1-ZIM3 mRNA + 150 ng gRNA (scaffold 174, v1), day 6): > 80%; permanence of PCSK9 silencing by spacer [5]: strongest permanence in silencing PCSK9; durability of PCSK9 repression by spacer ([5]; paired with LTRP5-ZIM3 or LTRP5-ADD-ZIM3, day 53): more durable repression than use of spacer 27.88 by day 53; durable PCSK9 knockdown ([5]; third-party-produced mRNA paired with gRNAs containing various spacers, up to day 71): highest level of PCSK9 repression
TG-06-350 (guide GUGUCAUAAAGAAAUUGCCU; listed as RNA, chemistry not given here) | 67.87 ng/mL | 4.74% | 71.25 ng/mL | 13.4% | 9.07% | –
ACUGGCCUUAACCUGGCAGC (listed as RNA, chemistry not given here) [spacer 6.141, Promoter] | 12.58 ng/mL | 82.34% | 13.86 ng/mL | 83.16% | 82.75% | average reduction in secreted PCSK9 levels ([2]; Huh7, LTRP5-ADD-ZIM3 mRNA + gRNA scaffold 316 (v1), 6 days, averaged from two doses (50 ng mRNA:25 ng gRNA, 25 ng:12.5 ng), relative to non-targeting gRNA): 82.75%
AGGGAUUUAUACUACAAAGA (listed as RNA, chemistry not given here) [spacer 6.138, Promoter] | 30.87 ng/mL | 56.67% | 18.99 ng/mL | 76.92% | 66.79% | repression of PCSK9 secretion by spacer ([2]; Huh7, paired with LTRP5-ADD-ZIM3 mRNA, scaffold 316, days 4, 14, 27): most effective repression of PCSK9 secretion
